Test results as given in patent publication US9944654B2, “Nargenicin compounds and uses thereof as antibacterial agents” (priority 2014, dated 2018).
Converted amounts (≈) assume the structure as drawn. Read-outs that look alike come from different tables or passages of the source.

Key:
[1] = test system: Streptococcus pneumoniae MB6357 (CL 2883); test: Nargenicin antibacterial assay (MIC), S. pneumoniae; type: cell-based; settings: * = some reduction of growth versus control at […]; for S. pneumoniae MB2883 (MIC): Isosensitest broth; for MIC: Streptococcus pneumoniae, read-out: S. pneumoniae MB2883 (MIC), Isosensitest broth
[2] = test system: Pseudomonas aeruginosa MB5890 (CB1101, efflux-deleted); test: microbe, parasite or virus in culture; type: cell-based; settings: * = some reduction of growth versus control at […]; for P. aeruginosa MB5890 efflux-del (MIC): MHII broth; for MIC: Pseudomonas aeruginosa, read-out: P. aeruginosa MB5890 efflux-del (MIC), MHII broth
[3] = test system: Drug susceptible M. tuberculosis clinical isolates; type: cell-based, Mycobacterium tuberculosis
[4] = test system: Staphylococcus aureus MB6266 (MRSA COL); test: Nargenicin antibacterial assay (MIC), S. aureus; type: cell-based; settings: * = some reduction of growth versus control at […]; for S. aureus COL (MIC): MHII broth + 50% human serum; for MIC: Staphylococcus aureus, MRSA, read-out: S. aureus COL (MIC), MHII broth + 50% human serum
[5] = biological target: T1, E. coli DnaE (DNA polymerase III α-subunit from Escherichia coli) (Escherichia coli, UniProt P10443); test: In vitro DnaE single enzyme assay (E. coli); type: biochemical
T1 construct: EcDnaE (E. coli DnaE residues 1-1160); 6xHis (N); made in house; host or cells: E. coli BL21(DE3)
T1 sequence (P10443 whole entry, the tested form may be a part): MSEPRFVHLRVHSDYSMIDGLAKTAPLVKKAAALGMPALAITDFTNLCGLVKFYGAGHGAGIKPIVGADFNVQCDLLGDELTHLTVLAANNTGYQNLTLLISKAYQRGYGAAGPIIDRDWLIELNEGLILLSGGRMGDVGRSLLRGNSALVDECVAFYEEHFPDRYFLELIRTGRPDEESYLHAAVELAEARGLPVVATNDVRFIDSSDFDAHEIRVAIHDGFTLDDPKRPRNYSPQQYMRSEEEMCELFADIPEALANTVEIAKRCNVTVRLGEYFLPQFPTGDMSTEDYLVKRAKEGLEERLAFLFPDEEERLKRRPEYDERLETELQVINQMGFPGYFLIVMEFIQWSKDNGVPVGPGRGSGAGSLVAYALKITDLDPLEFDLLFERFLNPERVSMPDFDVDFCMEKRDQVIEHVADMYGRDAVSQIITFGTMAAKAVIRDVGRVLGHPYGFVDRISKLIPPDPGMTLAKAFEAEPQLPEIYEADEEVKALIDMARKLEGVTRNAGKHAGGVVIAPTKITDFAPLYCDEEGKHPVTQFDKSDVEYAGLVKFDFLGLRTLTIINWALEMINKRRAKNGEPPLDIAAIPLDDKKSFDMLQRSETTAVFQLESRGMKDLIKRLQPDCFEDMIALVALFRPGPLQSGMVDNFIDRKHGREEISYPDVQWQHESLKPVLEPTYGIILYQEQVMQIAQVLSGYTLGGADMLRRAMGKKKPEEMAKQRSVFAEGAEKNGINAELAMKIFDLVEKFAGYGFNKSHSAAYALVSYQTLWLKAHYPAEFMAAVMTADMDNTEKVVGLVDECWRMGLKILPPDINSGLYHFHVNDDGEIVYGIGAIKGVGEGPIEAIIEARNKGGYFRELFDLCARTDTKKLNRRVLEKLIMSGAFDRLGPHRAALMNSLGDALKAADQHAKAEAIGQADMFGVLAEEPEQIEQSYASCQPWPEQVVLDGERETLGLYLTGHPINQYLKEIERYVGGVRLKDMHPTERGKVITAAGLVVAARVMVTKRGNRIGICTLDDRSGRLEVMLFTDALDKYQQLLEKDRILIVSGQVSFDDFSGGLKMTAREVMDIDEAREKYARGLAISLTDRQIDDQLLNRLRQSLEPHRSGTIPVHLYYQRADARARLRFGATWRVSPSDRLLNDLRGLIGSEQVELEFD
Method in brief: (§1)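 3H-dTTP (0.011 mM) incorporation into DNase I-activated calf thymus DNA, alongside the other three dNTPs at 0.025 mM, measured by filter counting after TCA precipitation. Reactions ran 30 min at 30° C., started with purified N-His DnaE: 0.8 μg/ml for E. coli, 0.05 μg/ml for S. aureus.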

[6] = test system: Escherichia coli MB5747 (LS 883, tolC); test: microbe, parasite or virus in culture; type: cell-based; settings: * = some reduction of growth versus control at […]; for E. coli LS883 tolC (MIC): MHII broth; for MIC: Escherichia coli, read-out: E. coli LS883 tolC (MIC), MHII broth
[7] = biological target: T2, S. aureus DnaE (DNA polymerase III α-subunit homolog from Staphylococcus aureus) (Staphylococcus aureus, UniProt Q5HF71); test: biochemical; type: biochemical
T2 construct: SaDnaE (S. aureus DnaE residues 1-1065); 6xHis (N); made in house; host or cells: E. coli BL21-AI
T2 sequence (Q5HF71 1-1065): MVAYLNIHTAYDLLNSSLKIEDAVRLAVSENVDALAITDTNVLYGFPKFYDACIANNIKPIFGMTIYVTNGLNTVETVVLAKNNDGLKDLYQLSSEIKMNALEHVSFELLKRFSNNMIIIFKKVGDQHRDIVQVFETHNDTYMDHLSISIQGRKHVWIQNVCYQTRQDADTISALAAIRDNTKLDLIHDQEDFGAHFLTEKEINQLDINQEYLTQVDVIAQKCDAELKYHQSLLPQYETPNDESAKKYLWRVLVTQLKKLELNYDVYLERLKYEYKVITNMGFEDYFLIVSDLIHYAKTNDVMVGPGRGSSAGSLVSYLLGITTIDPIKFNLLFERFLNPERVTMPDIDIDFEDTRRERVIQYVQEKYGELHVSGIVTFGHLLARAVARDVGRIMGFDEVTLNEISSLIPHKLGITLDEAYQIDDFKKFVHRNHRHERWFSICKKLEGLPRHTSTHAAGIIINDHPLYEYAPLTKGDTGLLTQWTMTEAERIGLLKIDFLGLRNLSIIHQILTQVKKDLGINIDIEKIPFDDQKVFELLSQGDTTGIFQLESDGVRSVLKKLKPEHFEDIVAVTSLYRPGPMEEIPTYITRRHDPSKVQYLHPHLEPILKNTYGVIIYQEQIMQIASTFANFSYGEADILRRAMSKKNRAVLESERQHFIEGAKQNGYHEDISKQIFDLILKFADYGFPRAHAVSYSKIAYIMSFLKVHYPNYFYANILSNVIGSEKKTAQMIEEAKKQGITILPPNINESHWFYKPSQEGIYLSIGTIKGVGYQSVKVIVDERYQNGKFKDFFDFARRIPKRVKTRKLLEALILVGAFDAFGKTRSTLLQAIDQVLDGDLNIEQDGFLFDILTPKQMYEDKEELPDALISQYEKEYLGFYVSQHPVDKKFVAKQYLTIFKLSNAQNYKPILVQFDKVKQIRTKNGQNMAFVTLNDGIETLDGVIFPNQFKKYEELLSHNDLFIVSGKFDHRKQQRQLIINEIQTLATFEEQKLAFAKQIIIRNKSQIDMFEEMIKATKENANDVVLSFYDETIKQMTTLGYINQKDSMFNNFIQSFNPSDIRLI
Method in brief: as §1

[8] = read-out: E. coli DnaE IC50 (converted)

Compound	S. pneumoniae MB2883 (MIC) [1]	P. aeruginosa MB5890 efflux-del (MIC) [2] [µg/mL]	S. aureus COL (MIC) [4] [µg/mL]	E. coli DnaE IC50 [5] [µg/mL]	E. coli LS883 tolC (MIC) [6] [µg/mL]	S. aureus DnaE IC50 [7] [µg/mL]	MIC [1] [µg/mL]	MIC [2] [µg/mL]	MIC [4] [µg/mL]	MIC [6] [µg/mL]	IC50 ([7]; S. aureus DnaE IC50) [µM]	further results
CO[C@H]1C[C@H]2C=CC3C4[C@H](O)[C@@H](C)[C@@H](OC(=O)c5ccc[nH]5)[C@@H]3O[C@]42/C(C)=C/[C@@H](C)[C@@H]([C@@H](C)OC(=O)C(=O)N2CCOCC2)OC1=O [Example 118]	128 µg/mL	32	0.5	>100	1	0.004	–	–	–	–	–	MICs compared with nargenicin [3]: equal to or better than nargenicin
CO[C@H]1CC2C=C[C@H]3[C@H]4O[C@]2(/C(C)=C/[C@@H](C)[C@@H](C(C)O)OC1=O)[C@@H]3[C@H](O)[C@@H](C)[C@H]4OC(=O)c1cccn1C(=O)C(C)C (some centres unmarked) [Example 204]	–	–	–	–	–	–	–	–	–	–	–	MICs compared with nargenicin ([3]; M. tuberculosis clinical isolates (MTB panel)): equal to or better than nargenicin
CO[C@H]1C[C@H]2C=C[C@H]3[C@H]4O[C@]2(/C(C)=C/[C@@H](C)[C@@H]([C@@H](C)OC(=O)NC(=O)C(Cl)(Cl)Cl)OC1=O)[C@@H]3[C@H](OC(=O)NC(=O)C(Cl)(Cl)Cl)[C@@H](C)[C@H]4OC(=O)c1ccc[nH]1 [Example 1, (3R,4S,7S,8aS,10aR,11R,12R,13R,14R,14aS,14bS,E)-7-methoxy-1,3,13-trimethyl-6-oxo-14-(((2,2,2-trichloroacetyl)carbamoyl)oxy)-4-((R)-1-(((2,2,2-trichloroacetyl)carbamoyl)oxy)ethyl)-3,4,6,7,8,8a,10a,11,12,13,14,14 a-dodecahydro-11,14b-epoxynaphtho[2,1-e]oxecin-12-yl 1H-pyrrole-2-carboxylate]	–	–	–	–	–	–	> 128	> 128	> 8	> 8	34.7	IC50 ([5]; E. coli DnaE IC50): 67.2 µM
CO[C@H]1CC2C=C[C@H]3[C@H]4O[C@]2(/C(C)=C/[C@@H](C)[C@@H]([C@@H](C)OC(=O)NCC(N)=O)OC1=O)[C@@H]3[C@H](O)[C@@H](C)[C@H]4OC(=O)c1ccc[nH]1 (some centres unmarked) [Example 16]	–	–	–	–	–	–	> 128	128 (≈ 208 µM)	32	4 (≈ 6.5 µM)	–	IC50 ([5]; E. coli DnaE IC50): 97.5 µM; IC50 ([7]; read-out: S. aureus DnaE IC50 (converted)): < 0.00975 µM
CO[C@H]1C[C@H]2C=C[C@H]3[C@H]4O[C@]2(/C(C)=C/[C@@H](C)[C@@H]([C@@H](C)O)OC1=O)[C@@H]3[C@H](O)[C@@H](C)[C@H]4OC(=O)c1cc(Br)c[nH]1 [Example 46]	–	–	–	–	–	–	64 (≈ 108 µM)	128 (≈ 215 µM)	8	2 (≈ 3.36 µM)	0.0151	IC50 [5, 8]: 16.8 µM
CO[C@H]1C[C@H]2C[C@H](O)[C@H]3[C@H]4O[C@]2(/C(C)=C/[C@@H](C)[C@@H]([C@@H](C)O)OC1=O)[C@@H]3[C@H](O)[C@@H](C)[C@H]4OC(=O)c1ccc[nH]1 [Example 192]	–	–	–	–	–	–	> 128	> 128	> 128	> 128	18.7	IC50 [5, 8]: > 187 µM
COCCNC(=O)C(=O)O[C@H](C)[C@H]1OC(=O)[C@@H](OC)C[C@H]2C=CC3C4[C@H](O)[C@@H](C)[C@@H](OC(=O)c5ccc[nH]5)[C@@H]3O[C@]42/C(C)=C/[C@H]1C [Example 119]	>128* μg/mL	8	≤0.125	11	0.25	0.0012	–	–	–	–	–	–
CO[C@H]1C[C@H]2C=CC3C4[C@H](O)[C@@H](C)[C@@H](OC(=O)c5ccc[nH]5)[C@@H]3O[C@]42/C(C)=C/[C@@H](C)[C@@H]([C@@H](C)OC(=O)C(=O)NC(C)(C)C)OC1=O [Example 116]	>128* μg/mL	8	≤0.125	15	0.25	0.006	–	–	–	–	–	–
